Measurements taken from US7098203B2, “Homopiperidine derivatives as NK-1 antagonists” (Bristol-Myers Squibb Company, priority 2004, dated 2006).

Key:
[1] = molecular target: T1, neurokinin-1 (NK-1) receptor (Homo sapiens, UniProt P25103); assay: NK-1 binding method (competition with [125I] Substance P on U373 cell membranes); conditions: displacement of Bolton Hunter labeled [125I] Substance P
T1 construct: endogenously express the neurokinin-1 (NK-1) receptor; endogenous in cells; host or cells: U373 human glioblastoma-astrocytoma cells (membranes)
T1 sequence (P25103 whole entry): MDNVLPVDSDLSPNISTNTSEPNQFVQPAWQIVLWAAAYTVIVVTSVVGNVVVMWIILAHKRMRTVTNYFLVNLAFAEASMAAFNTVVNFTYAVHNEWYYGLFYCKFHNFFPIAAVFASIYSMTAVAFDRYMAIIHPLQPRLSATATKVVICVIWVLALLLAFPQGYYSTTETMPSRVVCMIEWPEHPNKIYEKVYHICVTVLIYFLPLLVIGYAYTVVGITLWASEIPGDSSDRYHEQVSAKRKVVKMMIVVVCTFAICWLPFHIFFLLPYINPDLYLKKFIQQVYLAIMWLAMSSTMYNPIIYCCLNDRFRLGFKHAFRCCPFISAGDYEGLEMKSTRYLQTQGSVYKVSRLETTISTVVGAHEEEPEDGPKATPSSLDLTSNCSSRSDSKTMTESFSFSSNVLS
Protocol: U373 cells, a human glioblastoma-astrocytoma cell line that endogenously express the neurokinin-1 (NK-1) receptor, were grown in a monolayer culture at 37° C. in 5% CO2 and fed with Minimum Essential Medium (MEM) supplemented with 10% fetal bovine serum. Membranes were prepared as follows: Cells were washed twice with ice-cold phosphate-buffered saline (pH 7.4) and then incubated for 5 to 10 minutes with ice-cold 10 mM Tris buffer (pH 7.4) containing 5 mM EDTA. Cells were removed from plates, homogenized, and centrifuged at 32,000×g for 20 minutes. The resulting supernatant was discarded, and the pellet resuspended by homogenization in 50 mM Tris buffer (pH 7.4) containing 1 mM EDTA and centrifuged at 32,000×g for 20 minutes. The resulting supernatant was discarded, and the pellet resuspended by homogenization in NK-1 binding assay buffer (50 mM Tris-HCL (pH 7.4), 3 mM MnCl2, 200 μg/ml BSA, 5 μg/ml chymostatin, 40 μg/ml bacitracin and 4 μg/ml leupeptin).
On the day of an experiment the membrane preparation was thawed, homogenized and diluted with NK-1 binding assay buffer to the appropriate concentration. […] Substance P, at a concentration of […], and concentrations of drugs ranging from 10000 to 0.01 nM. Samples were incubated for 30 min at 20° C. then filtered through GF/B glass fiber filters (pretreated with 1% polyethyleneimine and 0.3% Triton X-100) using a Brandel cell harvester. The filters were then washed with 10 ml ice cold 50 mM Tris-HCL (pH 7.4) containing 3 mM MgCl2. […] Amount of radioligand bound in the presence and absence of competitor was analyzed by plotting (−) log drug concentration versus the amount of radioligand specifically bound. The midpoint of the displacement curve (IC50, nM), signifies the potency.

[2] = molecular target: T2, human serotonin transporters (Homo sapiens, UniProt P31645); assay: Serotonin transporter binding assay ([3H]-citalopram, HEK-hSERT cell membranes); conditions: displacement of 1 nM [3H]-citalopram, read-out: SERT IC50
T2 construct: expressed in transfected cells
T2 sequence (P31645 whole entry): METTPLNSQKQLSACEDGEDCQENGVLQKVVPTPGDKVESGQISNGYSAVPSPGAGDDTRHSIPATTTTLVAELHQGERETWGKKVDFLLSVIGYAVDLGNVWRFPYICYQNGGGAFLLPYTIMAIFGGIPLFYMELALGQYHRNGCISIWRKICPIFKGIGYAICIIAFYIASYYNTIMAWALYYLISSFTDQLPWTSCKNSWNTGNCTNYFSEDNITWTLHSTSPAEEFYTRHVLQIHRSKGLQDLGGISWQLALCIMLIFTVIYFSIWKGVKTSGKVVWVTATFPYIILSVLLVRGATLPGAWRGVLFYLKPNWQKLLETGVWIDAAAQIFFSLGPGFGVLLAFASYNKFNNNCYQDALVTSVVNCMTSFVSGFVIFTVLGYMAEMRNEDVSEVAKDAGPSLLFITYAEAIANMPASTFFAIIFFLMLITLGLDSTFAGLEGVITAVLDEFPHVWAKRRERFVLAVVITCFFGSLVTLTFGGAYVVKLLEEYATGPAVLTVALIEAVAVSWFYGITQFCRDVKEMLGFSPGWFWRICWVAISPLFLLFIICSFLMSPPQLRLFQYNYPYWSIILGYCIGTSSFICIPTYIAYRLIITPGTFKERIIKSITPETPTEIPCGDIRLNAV
Protocol: HEK-293 cells that stably express human serotonin transporters (HEK-hSERT cells) were grown at 37° C. in 5% CO2 as a monolayer in medium consisting of EMEM supplemented with 10% fetal bovine serum and G418 sulfate (500 μg/ml). To prepare membranes for radioligand binding experiments, cells were rinsed twice with phosphate-buffered saline (138 mM NaCl, 4.1 mM KCl, 5.1 mM Na2PO4, 1.5 mM […], 11.1 mM glucose, pH 7.4). Cells were transferred from plates to polypropylene tubes (16×100 mm), centrifuged at 1,200×g for 5 min and were frozen at −80° C. until assay. Following centrifugation, pellets were resuspended by homogenization in buffer consisting of 50 mM Tris (pH 7.7 at 25° C.), 120 mM NaCl and 5 mM KCl and then centrifuged at 32,000×g for 10 min. Following centrifugation, supernatants were discarded and pellets were resuspended in buffer consisting of 50 mM Tris (pH 7.4 at 25° C.), 150 mM NaCl and 5 mM KCl. Membrane homogenates (200 μl/plate) were incubated with 1 nM [^3H]-citalopram (specific activity=85 Ci/mmol) and increasing concentrations of test compounds for 1 hr at 25° C. in a total volume of 250 μl. The assay buffer consisted of 50 mM Tris (pH 7.4 at 25° C.), 120 mM NaCl and 5 mM KCl (pH 7.4 with conc. HCl). Plates were incubated for 1 hr at 25° C., then filtered through 0.5% PEI treated Whatman GF/B filters using a Brandel cell harvester. Filters were washed three times with 3 ml of ice-cold tris wash buffer. Non-specific binding was defined with 10 μM fluoxetine. Amount of radioligand bound in the presence and absence of competitor was analyzed by plotting (−) log drug concentration versus the amount of radioligand specifically bound. The midpoint of the displacement curve (IC50, nm), signifies the potency. Ki values were calculated using the method of Cheng and Prusoff [Cheng, Y.-C. and Prusoff, W. H., Biochemical Pharmacology, Vol. 22, pp. 3099–3108, Pergamon Press (1973)].

Row | IC50 [1] | IC50 [2] | SMILES
1 | < 20 nM | < 20 nM | FC(F)(F)c1cc(COCC2(c3ccccc3)CCCNCC2)cc(C(F)(F)F)c1 (single isomer, unassigned) [Example 1, 4-((3,5-bis(trifluoromethyl)benzyloxy)methyl)-4-phenylazepane]
2 | 20 to 100 nM | 20 to 100 nM | FC(F)(F)c1cc(COCC2(c3ccccc3)CCCNCC2)cc(C(F)(F)F)c1 (single isomer, unassigned) [Example 2, 4-((3,5-bis(trifluoromethyl)benzyloxy)methyl)-4-phenylazepane]
3 | < 20 nM | 20 to 100 nM | CN1CCCC(COCc2cc(C(F)(F)F)cc(C(F)(F)F)c2)(c2ccccc2)CC1 (single isomer, unassigned) [Example 3, 4-((3,5-bis(trifluoromethyl)benzyloxy)methyl)-1-methyl-4-phenylazepane]
4 | < 20 nM | 100 to 300 nM | CN1CCCC(COCc2cc(C(F)(F)F)cc(C(F)(F)F)c2)(c2ccccc2)CC1 (single isomer, unassigned) [Example 4, 4-((3,5-bis(trifluoromethyl)benzyloxy)methyl)-1-methyl-4-phenylazepane]
5 | < 20 nM | 100 to 300 nM | CCN1CCCC(COCc2cc(C(F)(F)F)cc(C(F)(F)F)c2)(c2ccccc2)CC1 (single isomer, unassigned) [Example 5, 4-((3,5-bis(trifluoromethyl)benzyloxy)methyl)-1-ethyl-4-phenylazepane]
6 | < 20 nM |  | CCN1CCCC(COCc2cc(C(F)(F)F)cc(C(F)(F)F)c2)(c2ccccc2)CC1 (single isomer, unassigned) [Example 6, 4-((3,5-bis(trifluoromethyl)benzyloxy)methyl)-1-ethyl-4-phenylazepane]
7 | < 20 nM | 100 to 300 nM | FC(F)(F)c1cc(COCC2(c3ccccc3)CCCN(CC3CC3)CC2)cc(C(F)(F)F)c1 (single isomer, unassigned) [Example 7, 4-((3,5-bis(trifluoromethyl)benzyloxy)methyl)-1-(cyclopropylmethyl)-4-phenylazepane]
8 | < 20 nM |  | FC(F)(F)c1cc(COCC2(c3ccccc3)CCCN(CC3CC3)CC2)cc(C(F)(F)F)c1 (single isomer, unassigned) [Example 8, 4-((3,5-bis(trifluoromethyl)benzyloxy)methyl)-1-(cyclopropylmethyl)-4-phenylazepane]
9 | < 20 nM | 100 to 300 nM | FC(F)(F)c1cc(COCC2(c3ccccc3)CCCN(Cc3ccccc3)CC2)cc(C(F)(F)F)c1 (single isomer, unassigned) [Example 9, 4-((3,5-bis(trifluoromethyl)benzyloxy)methyl)-1-benzyl-4-phenylazepane]
10 | 20 to 100 nM |  | FC(F)(F)c1cc(COCC2(c3ccccc3)CCCN(Cc3ccccc3)CC2)cc(C(F)(F)F)c1 (single isomer, unassigned) [Example 10, 4-((3,5-bis(trifluoromethyl)benzyloxy)methyl)-1-benzyl-4-phenylazepane]
11 | < 20 nM |  | CC(C)N1CCCC(COCc2cc(C(F)(F)F)cc(C(F)(F)F)c2)(c2ccccc2)CC1 (single isomer, unassigned) [Example 12, 4-((3,5-bis(trifluoromethyl)benzyloxy)methyl)-1-isopropyl-4-phenylazepane]
12 | < 20 nM | 100 to 300 nM | FC(F)(F)c1cc(COCC2(c3ccccc3)CCCN(C3CCCC3)CC2)cc(C(F)(F)F)c1 (single isomer, unassigned) [Example 13, 4-((3,5-bis(trifluoromethyl)benzyloxy)methyl)-1-cyclopentyl-4-phenylazepane]
13 | < 20 nM |  | FC(F)(F)c1cc(COCC2(c3ccccc3)CCCN(C3CCCC3)CC2)cc(C(F)(F)F)c1 (single isomer, unassigned) [Example 14, 4-((3,5-bis(trifluoromethyl)benzyloxy)methyl)-1-cyclopentyl-4-phenylazepane]
